Test results as given in PubChem BioAssay (NCI).
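Protocol summary: plate cells (96-well), add compound at 5 concentrations, incubate 48 h, interpolate endpoints linearly. GI50 = concentration required for 50% inhibition of growth. TGI is the concentration that stops growth completely.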

Columns and labels:
Assay in all cases: inhibition of tumour cell growth, NCI panel, 48 h
786-0 renal = tested on: 786-0 renal
A498 renal = tested on: A498 renal
A549 NSCLC = tested on: A549 NSCLC
ACHN renal = tested on: ACHN renal
BT-549 breast = tested on: BT-549 breast
CAKI-1 renal = tested on: CAKI-1 renal
CCRF-CEM leukemia = tested on: CCRF-CEM leukemia
DU-145 prostate = tested on: DU-145 prostate
EKVX NSCLC = tested on: EKVX NSCLC
HCC-2998 colon = tested on: HCC-2998 colon
HCT-116 colon = tested on: HCT-116 colon
HCT-15 colon = tested on: HCT-15 colon
HL-60(TB) leukemia = tested on: HL-60(TB) leukemia
HOP-62 NSCLC = tested on: HOP-62 NSCLC
HOP-92 NSCLC = tested on: HOP-92 NSCLC
HS 578T breast = tested on: HS 578T breast
HT29 colon = tested on: HT29 colon
IGROV1 ovarian = tested on: IGROV1 ovarian
K-562 leukemia = tested on: K-562 leukemia
KM12 colon = tested on: KM12 colon
LOX IMVI melanoma = tested on: LOX IMVI melanoma
M14 melanoma = tested on: M14 melanoma
MALME-3M melanoma = tested on: MALME-3M melanoma
MCF7 breast = tested on: MCF7 breast
MDA-MB-231 breast = tested on: MDA-MB-231 breast
MDA-MB-435 = tested on: MDA-MB-435
MOLT-4 leukemia = tested on: MOLT-4 leukemia
NCI-H226 lung = tested on: NCI-H226 lung
NCI-H23 lung = tested on: NCI-H23 lung

O=C(N/N=C/c1ccc([N+](=O)[O-])cc1)c1ccc2nc(-c3ccc(Cl)cc3)[nH]c2c1
GI50 (786-0 renal): 3.92 µM
TGI (786-0 renal): 15.7 µM
GI50 (A498 renal): 2.39 µM
TGI (A498 renal): 7.75 µM
GI50 (A549 NSCLC): 3.98 µM
TGI (A549 NSCLC): 24.1 µM
GI50 (ACHN renal): 4.36 µM
TGI (ACHN renal): 31.9 µM
GI50 (BT-549 breast): 2.84 µM
TGI (BT-549 breast): 9.71 µM
GI50 (CAKI-1 renal): 3.49 µM
TGI (CAKI-1 renal): 16.1 µM
GI50 (CCRF-CEM leukemia): 0.591 µM
TGI (CCRF-CEM leukemia): 17.7 µM
GI50 (DU-145 prostate): 3.99 µM
TGI (DU-145 prostate): 21.4 µM
GI50 (EKVX NSCLC): 3.2 µM
TGI (EKVX NSCLC): 21.2 µM
GI50 (HCC-2998 colon): 1.48 µM
TGI (HCC-2998 colon): 4.81 µM
GI50 (HCT-116 colon): 2.25 µM
TGI (HCT-116 colon): 6.9 µM
GI50 (HCT-15 colon): 2.6 µM
TGI (HCT-15 colon): 13 µM
GI50 (HL-60(TB) leukemia): 0.797 µM
TGI (HL-60(TB) leukemia): 5.73 µM
GI50 (HOP-62 NSCLC): 6.42 µM
TGI (HOP-62 NSCLC): 30.8 µM
GI50 (HOP-92 NSCLC): 0.985 µM
TGI (HOP-92 NSCLC): 7.52 µM
GI50 (HS 578T breast): 3.58 µM
TGI (HS 578T breast): 24.4 µM
GI50 (HT29 colon): 3.02 µM
TGI (HT29 colon): > 100 µM
GI50 (IGROV1 ovarian): 3.04 µM
TGI (IGROV1 ovarian): 11.4 µM
GI50 (K-562 leukemia): 0.499 µM
TGI (K-562 leukemia): 8.44 µM
GI50 (KM12 colon): 3.43 µM
TGI (KM12 colon): 13 µM
GI50 (LOX IMVI melanoma): 1.34 µM
TGI (LOX IMVI melanoma): 3.22 µM
GI50 (M14 melanoma): 2.73 µM
TGI (M14 melanoma): 9.13 µM
GI50 (MALME-3M melanoma): 1.48 µM
TGI (MALME-3M melanoma): 5 µM
GI50 (MCF7 breast): 0.582 µM
TGI (MCF7 breast): 2.85 µM
GI50 (MDA-MB-231 breast): 3.75 µM
TGI (MDA-MB-231 breast): 13.9 µM
GI50 (MDA-MB-435): 3.57 µM
TGI (MDA-MB-435): 12.2 µM
GI50 (MOLT-4 leukemia): 0.421 µM
TGI (MOLT-4 leukemia): 3.85 µM
GI50 (NCI-H226 lung): 5.03 µM
TGI (NCI-H226 lung): 31.2 µM
GI50 (NCI-H23 lung): 1.85 µM
